Results: patent publication US20240424113A1, “CONJUGATES COMPRISING ANTIFUNGALS AND HEAT SHOCK PROTEIN 90 (HSP90) INHIBITORS AND METHODS OF USE THEREOF” (Bright Angel Therapeutics Inc., priority 2021, published 2024)
Converted amounts (≈) assume the structure as drawn.

Experiments:
[1] = target: Hsp90 Nuclear Binding Domain (NBD) (Candida albicans (strain SC5314 / ATCC MYA-2876) (Yeast), UniProt P46598); test: Surface Plasmon Resonance (SPR) binding, C. albicans Hsp90 NBD; conditions: biotinylated Hsp90 NBD on streptavidin chip, 25° C., 1:1 binding model
Protocol: (§1) Surface Plasmon Resonance (SPR) Experiments. SPR experiments were performed on a Biacore S200 instrument at 25° C. Biotinylated Hsp90 Nuclear Binding Domain (NBD) was diluted to 40 μg/mL and immobilized on a streptavidin chip (Sensor Chip SA, GE Healthcare) at a density of 2000-2500 response units (RU) on the biosensor surface.
(§2) Recombinant Hsp90 NBDs were expressed and purified as previously described (Whitesell et al., Nat Commun 10, 402 (2019)) with the following modification; Hsp90 NBD expression constructs were modified to encode a C-terminal AviTag for site-specific on-column biotinylation with a BirA biotin-ligase kit (Avidity LLC; BirA-500). Stock protein solutions in 50% glycerol were stored at −20° C. until dilution into relevant buffers. Binding experiments were done in HBS-P (0.01 M HEPES, pH 7.4, 0.15 M NaCl, 0.005% v/v surfactant P20, GE Healthcare) with 2% DMSO at flow rate of 40 μL/min. Test compounds (dilution series) were injected with a 60 s association time and 600 s dissociation time. Resulting sensorgrams were analyzed with a fit to a 1:1 binding model, using BIA evaluation software.

CaCl2 = test: Antifungal sensitivity testing (broth microdilution MIC); assay type: cell-based; conditions: Table 4; 96-well broth microdilution
Protocol: Antifungal Sensitivity Testing. Minimum inhibitory concentrations (MICs) were determined in flat bottom, 96-well plate format using a modified broth microdilution protocol as previously described (Singh et al., PLoS Pathog. 5, e1000532 (2009); LaFayette et al., PLoS Pathog. 6, 79-80 (2010)). Compounds were formulated in dimethyl sulfoxide (DMSO, Sigma-Aldrich Co.); fluconazole was dissolved in sterile ddH2O. Each compound was tested in duplicate in at least two independent experiments. To test for fungicidal activity, cultures from MIC plates were spotted on YPD agar plates using a spotter (Frogger, V&P Scientific, Inc.). Plates were photographed after 24 h of incubation at 30° C.

[2] = target: Hsp90 Nuclear Binding Domain (NBD) (Aspergillus fumigatus, UniProt P40292); test: Surface Plasmon Resonance (SPR) binding, A. fumigatus Hsp90 NBD; conditions: biotinylated Hsp90 NBD on streptavidin chip, 25° C., 1:1 binding model; NB undefined
Protocol: as §1, §2

Sequence of Hsp90 Nuclear Binding Domain (NBD) (Candida albicans (strain SC5314 / ATCC MYA-2876) (Yeast), UniProt P46598) (P46598 1-218 limits assumed): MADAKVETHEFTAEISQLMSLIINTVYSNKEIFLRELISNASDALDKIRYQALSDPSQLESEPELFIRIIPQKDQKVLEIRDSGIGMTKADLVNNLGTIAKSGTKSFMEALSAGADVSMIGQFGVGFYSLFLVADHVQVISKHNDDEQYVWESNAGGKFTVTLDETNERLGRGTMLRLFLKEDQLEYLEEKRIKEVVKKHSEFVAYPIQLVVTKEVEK
Sequence of Hsp90 Nuclear Binding Domain (NBD) (Aspergillus fumigatus, UniProt P40292) (P40292 whole entry, looked up, the tested form may be a part): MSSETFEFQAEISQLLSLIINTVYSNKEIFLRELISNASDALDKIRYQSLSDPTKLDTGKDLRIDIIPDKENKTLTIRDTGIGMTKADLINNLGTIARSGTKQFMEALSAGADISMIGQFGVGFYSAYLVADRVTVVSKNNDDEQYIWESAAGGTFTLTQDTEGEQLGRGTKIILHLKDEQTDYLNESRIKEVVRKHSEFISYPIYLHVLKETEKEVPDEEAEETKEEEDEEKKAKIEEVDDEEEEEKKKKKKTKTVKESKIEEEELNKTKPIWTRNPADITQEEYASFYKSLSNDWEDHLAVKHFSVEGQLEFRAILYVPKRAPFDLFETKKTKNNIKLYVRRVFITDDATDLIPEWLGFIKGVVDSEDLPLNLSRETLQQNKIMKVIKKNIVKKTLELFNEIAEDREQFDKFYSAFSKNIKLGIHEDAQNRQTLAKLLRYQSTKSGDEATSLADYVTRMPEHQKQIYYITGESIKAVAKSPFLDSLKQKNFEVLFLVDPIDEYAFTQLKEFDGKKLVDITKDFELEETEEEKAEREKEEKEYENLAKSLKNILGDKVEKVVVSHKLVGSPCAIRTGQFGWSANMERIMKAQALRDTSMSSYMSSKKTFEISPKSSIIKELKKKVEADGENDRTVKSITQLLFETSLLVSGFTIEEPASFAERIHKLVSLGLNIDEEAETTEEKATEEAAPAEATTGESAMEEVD

Row | SMILES | Kd [1] | MIC50 (CaCl2) | Kd [2]
1 | Nc1nc2sc(CNC3[C@@H]4CC[C@H]3CN(CC(O)(Cn3cncn3)c3ccc(F)cc3F)C4)cc2n(-c2ccc3c(c2)N(c2ccccc2)CCO3)c1=O (stereo partly drawn) [Compound I-116, 3-amino-6-((((1R,5S)-3-(2-(2,4-difluorophenyl)-2-hydroxy-3-(1H-1,2,4-triazol-1-yl)propyl)-3-azabicyclo[3.2.1]octan-8-yl)amino)methyl)-1-(4-phenyl-3,4-dihydro-2H-benzo[b][1,4]oxazin-6-yl)thieno[2,3-b]pyrazin-2(1H)-one] | 1350 nM | 3 µM (≈ 2.26 µg/mL) | –
2 | Nc1nc2sc(C(=O)NC3CCN(C[C@](O)(Cn4cncn4)c4ccc(F)cc4F)CC3)cc2n(-c2ccc3c(c2)N(c2ccccc2)CCO3)c1=O [Compound I-7, (S)-3-amino-N-(1-(2-(2,4-difluorophenyl)-2-hydroxy-3-(1H-1,2,4-triazol-1-yl)propyl)piperidin-4-yl)-2-oxo-1-(4-phenyl-3,4-dihydro-2H-benzo[b][1,4]oxazin-6-yl)-1,2-dihydrothieno[2,3-b]pyrazine-6-carboxamide] | 22.8 nM | 0.75 µM (≈ 0.555 µg/mL) | 76.4 nM
3 | Nc1nc2sc(-c3cn(C4CCN(CC(O)(Cn5cncn5)c5ccc(F)cc5F)CC4)nn3)cc2n(-c2ccc3c(c2)N(c2ccccc2)CCO3)c1=O (stereo not shown) [Compound I-51, 3-amino-6-(1-(1-(2-(2,4-difluorophenyl)-2-hydroxy-3-(1H-1,2,4-triazol-1-yl)propyl)piperidin-4-yl)-1H-1,2,3-triazol-4-yl)-1-(4-phenyl-3,4-dihydro-2H-benzo[b][1,4]oxazin-6-yl)thieno[2,3-b]pyrazin-2(1H)-one] | 3 nM | 1 µM (≈ 0.764 µg/mL) | 14.6 nM
4 | Nc1nc2sc(CNC3CCN(C(=O)C[C@@](O)(Cn4cncn4)c4ccc(F)cc4F)CC3)cc2n(-c2ccc3c(c2)N(c2ccccc2)CCO3)c1=O [Compound I-129, (S)-3-amino-6-(((1-(3-(2,4-difluorophenyl)-3-hydroxy-4-(1H-1,2,4-triazol-1-yl)butanoyl)piperidin-4-yl)amino)methyl)-1-(4-phenyl-3,4-dihydro-2H-benzo[b][1,4]oxazin-6-yl)thieno[2,3-b]pyrazin-2(1H)-one] | 546 nM | 7 µM (≈ 5.28 µg/mL) | 698 nM
5 | Nc1nc2sc(CNCC(O)(Cn3cncn3)c3ccc(F)cc3F)cc2n(-c2ccc3c(c2)N(c2ccccc2)CCO3)c1=O (stereo not shown) [Compound I-82, 3-amino-6-(((2-(2,4-difluorophenyl)-2-hydroxy-3-(1H-1,2,4-triazol-1-yl)propyl)amino)methyl)-1-(4-phenyl-3,4-dihydro-2H-benzo[b][1,4]oxazin-6-yl)thieno[2,3-b]pyrazin-2(1H)-one] | 826 nM | 1.6 µM (≈ 1.03 µg/mL) | 1350 nM
6 | Nc1nc2sc(C(=O)NC3CCN(CC(O)(Cn4cncn4)c4ccc(F)cc4F)CC3)cc2n(-c2ccc3ccn(-c4ccccc4)c3c2)c1=O (stereo not shown) [Compound I-13, 3-amino-N-(1-(2-(2,4-difluorophenyl)-2-hydroxy-3-(1H-1,2,4-triazol-1-yl)propyl)piperidin-4-yl)-2-oxo-1-(1-phenyl-1H-indol-6-yl)-1,2-dihydrothieno[2,3-b]pyrazine-6-carboxamide] | 50.4 nM | 0.37 µM (≈ 0.267 µg/mL) | 75.1 nM
7 | Cc1ccc(-n2c(=O)c(N)nc3sc(C(=O)NC4CCN(C[C@](O)(Cn5cncn5)c5ccc(F)cc5F)CC4)cc32)cc1Oc1ccccc1 [Compound I-25, (S)-3-amino-N-(1-(2-(2,4-difluorophenyl)-2-hydroxy-3-(1H-1,2,4-triazol-1-yl)propyl)piperidin-4-yl)-1-(4-methyl-3-phenoxyphenyl)-2-oxo-1,2-dihydrothieno[2,3-b]pyrazine-6-carboxamide] | 171 nM | 0.5 µM (≈ 0.356 µg/mL) | 299 nM
8 | Nc1nc2sc(CNC3CCN(CC(O)(Cn4cncn4)c4ccccc4)CC3)cc2n(-c2ccc3c(c2)N(c2ccccc2)CCO3)c1=O (stereo not shown) [Compound I-145, 3-amino-6-(((1-(2-hydroxy-2-phenyl-3-(1H-1,2,4-triazol-1-yl)propyl)piperidin-4-yl)amino)methyl)-1-(4-phenyl-3,4-dihydro-2H-benzo[b][1,4]oxazin-6-yl)thieno[2,3-b]pyrazin-2(1H)-one] | 114 nM | 12.5 µM (≈ 8.62 µg/mL) | 161 nM
9 | Nc1nc2sc(C(=O)NC3CCN(CC(O)(Cn4cncn4)c4ccc(F)cc4F)CC3)cc2n(-c2ccc3c(c2)N(c2ccccc2)CCC3)c1=O (stereo not shown) [Compound I-16, 3-amino-N-(1-(2-(2,4-difluorophenyl)-2-hydroxy-3-(1H-1,2,4-triazol-1-yl)propyl)piperidin-4-yl)-2-oxo-1-(1-phenyl-1,2,3,4-tetrahydroquinolin-7-yl)-1,2-dihydrothieno[2,3-b]pyrazine-6-carboxamide] | 16 nM | 0.6 µM (≈ 0.443 µg/mL) | 140 nM
10 | Nc1nc2sc(CN[C@H]3[C@@H]4CN(CC(O)(Cn5cncn5)c5ccc(F)cc5F)C[C@@H]43)cc2n(-c2ccc3c(c2)N(c2ccccc2)CCO3)c1=O (stereo partly drawn) [Compound I-81, 3-amino-6-((((1R,5S,6s)-3-(2-(2,4-difluorophenyl)-2-hydroxy-3-(1H-1,2,4-triazol-1-yl)propyl)-3-azabicyclo[3.1.0]hexan-6-yl)amino)methyl)-1-(4-phenyl-3,4-dihydro-2H-benzo[b][1,4]oxazin-6-yl)thieno[2,3-b]pyrazin-2(1H)-one] | 825 nM | 2.5 µM (≈ 1.81 µg/mL) | 1040 nM
11 | Nc1nc2sc(CN3CCN(CC(O)(Cn4cncn4)c4ccc(F)cc4F)CC3)cc2n(-c2ccc3c(c2)N(c2ccccc2)CCO3)c1=O (stereo not shown) [Compound I-68, 3-amino-6-((4-(2-(2,4-difluorophenyl)-2-hydroxy-3-(1H-1,2,4-triazol-1-yl)propyl)piperazin-1-yl)methyl)-1-(4-phenyl-3,4-dihydro-2H-benzo[b][1,4]oxazin-6-yl)thieno[2,3-b]pyrazin-2(1H)-one] | 417 nM | 0.75 µM (≈ 0.534 µg/mL) | 545 nM
12 | Nc1nc2sc(CNCCC(O)(Cn3cncn3)c3ccc(F)cc3F)cc2n(-c2ccc3c(c2)N(c2ccccc2)CCO3)c1=O (stereo not shown) [Compound I-74, 3-amino-6-(((3-(2,4-difluorophenyl)-3-hydroxy-4-(1H-1,2,4-triazol-1-yl)butyl)amino)methyl)-1-(4-phenyl-3,4-dihydro-2H-benzo[b][1,4]oxazin-6-yl)thieno[2,3-b]pyrazin-2(1H)-one] | 429 nM | 12 µM (≈ 7.88 µg/mL) | 853 nM
13 | Nc1nc2sc(C(=O)Nc3ccc(COC4CCN(CC(O)(Cn5cncn5)c5ccc(F)cc5F)CC4)cc3)cc2n(-c2ccc3c(c2)N(c2ccccc2)CCO3)c1=O (stereo not shown) [Compound I-46, 3-amino-N-(4-(((1-(2-(2,4-difluorophenyl)-2-hydroxy-3-(1H-1,2,4-triazol-1-yl)propyl)piperidin-4-yl)oxy)methyl)phenyl)-2-oxo-1-(4-phenyl-3,4-dihydro-2H-benzo[b][1,4]oxazin-6-yl)-1,2-dihydrothieno[2,3-b]pyrazine-6-carboxamide] | – | 0.85 µM (≈ 0.719 µg/mL) | –
14 | CN(Cc1cc2c(nc(N)c(=O)n2-c2ccc3c(c2)N(c2ccccc2)CCO3)s1)C1CCN(CC(O)(Cn2cncn2)c2ccc(F)cc2F)CC1 (stereo not shown) [Compound I-119, 3-amino-6-(((1-(2-(2,4-difluorophenyl)-2-hydroxy-3-(1H-1,2,4-triazol-1-yl)propyl)piperidin-4-yl)(methyl)amino)methyl)-1-(4-phenyl-3,4-dihydro-2H-benzo[b][1,4]oxazin-6-yl)thieno[2,3-b]pyrazin-2(1H)-one] | – | 6.5 µM (≈ 4.81 µg/mL) | –
15 | Nc1nc2sc(C(=O)NC3CCCN(CC(O)(Cn4cncn4)c4ccc(F)cc4F)CC3)cc2n(-c2ccc3c(c2)N(c2ccccc2)CCO3)c1=O (stereo not shown) [Compound I-50, 3-amino-N-(1-(2-(2,4-difluorophenyl)-2-hydroxy-3-(1H-1,2,4-triazol-1-yl)propyl)azepan-4-yl)-2-oxo-1-(4-phenyl-3,4-dihydro-2H-benzo[b][1,4]oxazin-6-yl)-1,2-dihydrothieno[2,3-b]pyrazine-6-carboxamide] | 42.7 nM | 3.25 µM (≈ 2.45 µg/mL) | –
16 | Nc1nc2sc(C(=O)Nc3ccc(N4CCN(CC(O)(Cn5cncn5)c5ccc(F)cc5F)CC4)cc3)cc2n(-c2ccc3c(c2)N(c2ccccc2)CCO3)c1=O (stereo not shown) [Compound I-8, 3-amino-N-(4-(4-(2-(2,4-difluorophenyl)-2-hydroxy-3-(1H-1,2,4-triazol-1-yl)propyl)piperazin-1-yl)phenyl)-2-oxo-1-(4-phenyl-3,4-dihydro-2H-benzo[b][1,4]oxazin-6-yl)-1,2-dihydrothieno[2,3-b]pyrazine-6-carboxamide] | – | 0.75 µM (≈ 0.613 µg/mL) | –
